In patent US11896007B2, “Pest control using natural pest control agent blends” (TYRATECH, INC., priority 2008, dated 2024):

Key:
Drosophila TyrR [1] = molecular target: T1, Drosophila TyrR (Drosophila melanogaster, UniProt P22270, C261Y); assay: Competitive tyramine receptor binding assay with 3H-tyramine
T1 construct: The open reading frame contained in this PCR product encodes a protein of 601 amino acids; expressed in transfected cells
T1 sequence (P22270 27-601 C261Y): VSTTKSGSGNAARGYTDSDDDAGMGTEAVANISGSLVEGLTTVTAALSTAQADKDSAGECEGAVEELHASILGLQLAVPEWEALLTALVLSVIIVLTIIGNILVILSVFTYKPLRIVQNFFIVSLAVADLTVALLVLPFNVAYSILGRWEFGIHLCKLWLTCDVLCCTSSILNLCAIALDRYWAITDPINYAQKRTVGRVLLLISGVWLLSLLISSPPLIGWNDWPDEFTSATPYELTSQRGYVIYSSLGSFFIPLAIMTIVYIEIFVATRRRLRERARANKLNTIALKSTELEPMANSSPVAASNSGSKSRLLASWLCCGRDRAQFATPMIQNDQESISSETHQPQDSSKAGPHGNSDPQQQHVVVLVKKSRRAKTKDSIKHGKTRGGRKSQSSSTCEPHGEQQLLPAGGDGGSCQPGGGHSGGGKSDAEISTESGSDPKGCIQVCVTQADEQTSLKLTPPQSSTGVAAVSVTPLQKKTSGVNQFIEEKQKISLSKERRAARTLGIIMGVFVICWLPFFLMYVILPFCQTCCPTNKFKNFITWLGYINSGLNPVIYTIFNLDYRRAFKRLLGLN

[2] = molecular target: T2, Drosophila tyramine receptor (droTyrR) (Drosophila melanogaster, UniProt P22270, C261Y); assay: Intracellular calcium ([Ca2+]i) in S2 cells stably transfected with Drosophila tyramine receptor (Fura-2 AM); type: cell-based; conditions: 1 μM; Dro-TyrR-expressing S2 cells; no increase in pAC control cells (FIG. 25)
T2 construct: The open reading frame contained in this PCR product encodes a protein of 601 amino acids; expressed in transfected cells
T2 sequence (P22270 27-601 C261Y): T1 sequence (P22270 27-601 C261Y)
Description: The blend (at a final concentration of 0.5 mg/mL) was tested on a Drosophila Scheider 2 (“S2”) cell line that was stably transfected with a DNA encoding a tyramine receptor that was amplified from a Drosophila melanogaster head cDNA phage library (“droTyrR”). The intracellular calcium levels (“[Ca^2+]i”) in the treated S2 cells were then measured as a function of time. As a comparison, the a solution of carrier (canola oil, final concentration=0.12 mg/mL) and a solution of surfactant (sugar ester OWA-1570) in insect saline were tested separately.
In a separate set of experiments, the blend (at a final concentration of 0.5 mg/mL) was tested on a Drosophila Scheider 2 (“S2”) cell line that was stably transfected with droTyrR DNA, and the intracellular calcium levels (“[Ca^2+]i”) in the treated S2 cells were then measured as a function of time. […]
In yet another separate set of experiments, the blend (at a final concentration of 0.5 mg/mL) was tested on a Drosophila Scheider 2 (“S2”) cell line that was stably transfected with droTyrR DNA, and the intracellular calcium levels (“[Ca^2+]i”) in the treated S2 cells were then measured as a function of time. […]
Increased cytoplasmic concentrations of IP3 induce release of Ca2+ from the endoplasmic reticulum. […] Data are normalized by dividing each value by the background fluorescence at the beginning of the assay before adding the test sample. […]

Drosophila TyrR [3] = molecular target: T1, Drosophila TyrR; assay: 3H-tyramine saturation binding to membranes of S2 cells expressing TyrR; conditions: 0.1 to 30 nM 3H-tyramine
Description: To first isolate membranes, Dro-TyrR-expressing S2 cells grown in Drosophila media are harvested in the same media by scraping from the dishes and then rinsing dishes with PBS. The cells are centrifuged at 1000 g for 3 min, washed once with PBS and centrifuged again as previously described. The cells are suspended in ice cold hypotonic buffer (10 mM Tris-Cl, pH 7.4), incubated on ice for 10 min, and lysed using a glass Bounce homogenizer and tight glass pestle (Kontes Glass Co., Vineland, N.J.) with 10 strokes. Nuclei are pelleted by centrifugation at 600 g for 5 min. The supernatant is decanted and centrifuged at 30,000 g for 30 min to pellet a crude membrane fraction. The pellet is suspended in binding buffer (50 mM Tris-Cl, 5 mM MgCl2, pH 7.4). Protein concentration is determined by the Bradford Assay (Bio-Rad Laboratories, Hercules, Calif.). Membranes are frozen on dry ice then stored at −75° C. in aliquots.
[…] The binding reaction is incubated at 23° C. in the presence and absence of 10 μM unlabeled tyramine. Reactions are terminated after 60 min by addition of 3 ml ice cold binding buffer and filtered over GF/C filters that have been soaked for 30 min in 0.3% polyethylenimine. Filters are rinsed one additional time with 3 ml binding buffer. […]

NCC(O)c1ccc(O)cc1 (racemic) [Octopamine (OA), DL-octopamine]
Ki (Drosophila TyrR [1]; competitive binding with 3H-tyramine): 28.7 µM

NCCc1ccc(O)cc1 [Tyramine (TA), Tyramine]
Ca2+-bound Fura-2 AM fluorescence [2]: sharp increase
affinity for TyrR relative to DL-octopamine (Drosophila TyrR [1]; ratio of Ki values): about 22.58 fold

NCCc1ccc(O)cc1 [^3H-tyramine]
Kd (Drosophila TyrR [3]; 10 μM unlabeled tyramine for nonspecific binding, read-out: Kd for specific binding): 0.00256 µM
Bmax for specific binding (Drosophila TyrR [3]; membranes of TyrR-expressing S2 cells): 0.679 pmol receptor/mg membrane protein
